The values below come from patent US9663514B2 (Takeda Pharmaceutical Company Limited, priority 2011, dated 2017).

This assay addresses T1, SYK (Homo sapiens, UniProt P43405).
T1 construct: The SYK kinase domain (residues 356-635) is amplified via PCR; made in house; host or cells: Sf9 insect cells (baculovirus, pFastBac1)
Kind of assay: SYK inhibition: in vitro assay of SYK-mediated phosphorylation of FAM-labeled substrate (Caliper LC-3000). In kind it is biochemical. Conditions: SYK kinase domain (residues 356-635); 2.4 nM SYK and 45 μM ATP, 3 μM 5FAM-KKKKEEIYFFFG-NH2, RT 60 min, pH 7.3; pIC50 = −log(IC50), IC50 molar. As to the method:
The ability of compounds to inhibit SYK activity may be assessed using a variety of methods, including in vitro and in vivo assays. The following in vitro assay measures a test compound's ability to inhibit SYK-mediated phosphorylation of a FAM-labeled SYK-specific substrate (5FAM-KKKKEEIYFFFG-NH2).
SYK protein is prepared from cDNA encoding human spleen tyrosine kinase and is expressed in insect cells using a baculovirus expression vector. The cDNA (IMAGE: 3542895) is purchased from Open Biosystems. The SYK kinase domain (residues 356-635) is amplified via PCR and cloned into plasmid pFastBacl (Invitrogen) at BamHI/XbaI sites. Recombinant plasmid encoding Met-Ala-Lys-SYK(356-635)-HHHHHH is sequenced and transformed into E. coli DH10Bac strain. The recombinant bacmid DNA is isolated and transfected into Sf9 insect cells. Recombinant virus is harvested 72 h after transfection. High titer viral stock is prepared by infecting Sf9 cells at a multiplicity of infection (MOI) of approximately 0.01. A suspension of Sf9 cells (10 L) is infected with recombinant virus (MOI=5) and is incubated in a Wave Bioreactor (GE-Healthcare) for 48 h. The cells are harvested and stored at −80° C.
To purify the expressed protein, the frozen Sf9 cells (10 L) are broken into small (<1 cm) particles and suspended in a lysis buffer (300 mL) containing 20 mM Tris (pH 7.6), 0.25 mM TCEP, 100 mM NaCl, 5% glycerol and a protease inhibitor. The suspension is stirred at RT until completely thawed, lysed an additional 2-4 min on a rotary blade homogenizer, and then centrifuged at 4200 g for 1 h. Following centrifugation, the supernatant is poured through cheese cloth and combined with a nickel chelating resin (Probond Resin™, Invitrogen) which is pre-equilibrated in a wash buffer containing 10 mM Tris (pH 7.6), 0.25 mM TCEP, 300 mM NaCl, 5% glycerol, and 20 mM imidazole. The mixture is agitated for 3 h in a cold room and then centrifuged at 900 g for 10 min. The resin is dispersed in wash buffer (50 mL), centrifuged for 10 min at 900 g, re-dispersed in a small amount of wash buffer (5 mL), and then pour into a disposable Poly-Prep chromatography column, through which wash buffer is passed by gravity until no protein is observed in coomassie buffer (about 120 mL of wash buffer). An elution buffer (30 mL) containing 10 mM HEPES (pH 7.4), 150 mM NaCl, 10% glycerol, 5 mM DTT, and 400 mM imidazole is used to elute the SYK protein from the resin. The eluate is concentrated (5 mL) and further purified on a Superdex 200 column (1.2 mL/min for 160 min, 10 mM HEPES (pH 7.4), 10 mM NaCl, 10 mM MgCl, 0.1 mM EDTA, and 0.25 mM TCEP). The chromatographed fractions are run on SDS-PAGE and the requisite fractions are pooled and concentrated. Final delivery buffer is 10 mM HEPES (pH 7.4), 10 mM Methione, 150 mM NaCl, 10% glycerol, 5 mM DTT.
SYK inhibition is determined using a black 384 well plate format in buffer containing 50 mM HEPES, 10 mM NaCl, 10 mM MgCl2, 0.2 mM EDTA, 0.01% EDA (Brij®35), 1 mM DTT, and 0.1 mg/ml BSA at pH 7.3. Each test compound is prepared in DMSO using 2-fold serial dilutions for 11 data points, which are added to the buffer so that each dilution contains 3% DMSO. To each well is added 2 μL of 3 μM SFAM-KKKKEEIYFFFG-NH2 (in buffer), 2 μL of diluted test compound (3% DMSO in buffer), and 2 μL of 2.4 nM SYK and 45 μM ATP (in buffer). The reaction mixture is incubated at RT for 60 min, and quenched by adding 50 mM Hepes, 30 mM EDTA, 0.1% Triton X-100 (pH 7.3). To quantify the fluorescent-labeled substrate and product following reaction, the test plate is loaded on a Caliper LC-3000, which measures percent of conversion by microfluidic-based separation. Corresponding IC50 values are calculated by non-linear curve fitting of the compound concentrations and percent of inhibition to the standard IC50 equation and reported as pIC50, i.e., −log(IC50), where IC50 is molar concentration.

`N[C@H]1COCC[C@H]1Nc1nc(-c2cc3ncccc3s2)c2c(c1F)CNC2=O` [Example 25, 6-((3R,4R)-3-Aminotetrahydro-2H-pyran-4-ylamino)-7-fluoro-4-(thieno[3,2-b]pyridin-2-yl)-1H-pyrrolo[3,4-c]pyridin-3(2H)-one] had an IC50 of 12.6 nM.

`N[C@H]1CCCC[C@H]1Nc1nc(-c2cc3ncccc3s2)c2c(c1F)CNC2=O` [Example 26, 6-((1R,2S)-2-Aminocyclohexylamino)-7-fluoro-4-(thieno[3,2-b]pyridin-2-yl)-1H-pyrrolo[3,4-c]pyridin-3(2H)-one] showed an IC50 of 5.01 nM.

In turn, `N[C@H]1COCC[C@H]1Nc1nc(-c2cc(F)cs2)c2c(c1F)CNC2=O` [Example 27, 6-((3R,4R)-3-Aminotetrahydro-2H-pyran-4-ylamino)-7-fluoro-4-(4-fluorothiophene-2-yl)-1H-pyrrolo[3,4-c]pyridin-3(2H)-one] had an IC50 of 5.01 nM.

Molecule `N[C@H]1CCCC[C@H]1Nc1nc(-c2cc(F)cs2)c2c(c1F)CNC2=O` [Example 28, 6-((1R,2S)-2-Aminocyclohexylamino)-7-fluoro-4-(4-fluorothiophene-2-yl)-1H-pyrrolo[3,4-c]pyridin-3(2H)-one] showed an IC50 of 1.58 nM.

`Cn1ncc2sc(-c3nc(N[C@@H]4CCCC[C@@H]4N)c(F)c4c3C(=O)NC4)cc21` [Example 29, 6-((1R,2S)-2-Aminocyclohexylamino)-7-fluoro-4-(1-methyl-1H-thieno[3,2-c]pyrazol-5-yl)-1H-pyrrolo[3,4-c]pyridin-3(2H)-one] had an IC50 of 0.1 nM.

Molecule `Cn1ncc2sc(-c3nc(N[C@@H]4CCOC[C@@H]4N)c(F)c4c3C(=O)NC4)cc21` [Example 30, 6-((3R,4R)-3-Aminotetrahydro-2H-pyran-4-ylamino)-7-fluoro-4-(1-methyl-1H-thieno[3,2-c]pyrazol-5-yl)-1H-pyrrolo[3,4-c]pyridin-3(2H)-one] gave an IC50 of 0.1 nM.

In turn, `Cc1nn(C)c2cc(-c3nc(N[C@@H]4CCCC[C@@H]4N)c(F)c4c3C(=O)NC4)sc12` [Example 31, 6-((1R,2S)-2-Aminocyclohexylamino)-4-(1,3-dimethyl-1H-thieno[3,2-c]pyrazol-5-yl)-7-fluoro-1H-pyrrolo[3,4-c]pyridin-3(2H)-one] showed an IC50 of 0.126 nM.

With `Cc1nn(C)c2cc(-c3nc(N[C@@H]4CCOC[C@@H]4N)c(F)c4c3C(=O)NC4)sc12` [Example 32, 6-((3R,4R)-3-Aminotetrahydro-2H-pyran-4-ylamino)-4-(1,3-dimethyl-1H-thieno[3,2-c]pyrazol-5-yl)-7-fluoro-1H-pyrrolo[3,4-c]pyridin-3(2H)-one], the IC50 is 0.2 nM.

In turn, `Cc1c2sc(-c3nc(N[C@@H]4CCCC[C@@H]4N)c(F)c4c3C(=O)NC4)cc2nn1C` [Example 33, 6-((1R,2S)-2-Aminocyclohexylamino)-4-(2,3-dimethyl-2H-thieno[3,2-c]pyrazol-5-yl)-7-fluoro-1H-pyrrolo[3,4-c]pyridin-3(2H)-one] had a 50% inhibitory concentration (IC50) of 0.631 nM.

The molecule `Cc1c2sc(-c3nc(N[C@@H]4CCOC[C@@H]4N)c(F)c4c3C(=O)NC4)cc2nn1C` [Example 34, 6-((3R,4R)-3-Aminotetrahydro-2H-pyran-4-ylamino)-4-(2,3-dimethyl-2H-thieno[3,2-c]pyrazol-5-yl)-7-fluoro-1H-pyrrolo[3,4-c]pyridin-3(2H)-one] gave a half-inhibitory concentration (IC50) of 1.26 nM.

On to `N[C@H]1CCCC[C@H]1Nc1nc(-c2cc3n(c2)CCOC3)c2c(c1F)CNC2=O` [Example 35, 6-((1R,2S)-2-Aminocyclohexylamino)-4-(3,4-dihydro-1H-pyrrolo[2,1-c][1,4]oxazin-7-yl)-7-fluoro-1H-pyrrolo[3,4-c]pyridin-3(2H)-one], for which half-maximal inhibition (IC50) was put at 10 nM.

In the case of `Cc1nn(C)c2sc(-c3nc(N[C@@H]4CCCC[C@@H]4N)c(F)c4c3C(=O)NC4)cc12` [Example 36, 6-((1R,2S)-2-Aminocyclohexylamino)-4-(1,3-dimethyl-1H-thieno[2,3-c]pyrazol-5-yl)-7-fluoro-1H-pyrrolo[3,4-c]pyridin-3(2H)-one], 0.126 nM corresponded to half-maximal inhibition (IC50).
